The record followed here is US20250115598A1 (Anaxis Pharma Pty Ltd, priority 2021, published 2025).

Read-outs that look alike come from different tables or passages of the source. A value given as a limit tells only on which side of the number the result lay.

One test deals with human MLKL (full length) (Homo sapiens (Human), UniProt Q8NB16). The test can be described thus: KINOMEscan binding assay, human MLKL (full length). The method in brief: (§1)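 Compound dilutions (11 points, 3-fold, mostly from 30,000 nM, 1% DMSO final) competed with immobilized ligand for DNA- or phage-tagged protein, and bead-bound protein was measured by qPCR. Kd values came from Hill-equation fits with slope −1 (Levenberg-Marquardt).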

In test [1] the test system is Immortalised Mouse Dermal Fibroblasts (MDFs). The test can be described thus: Cellular assay: inhibition of TSI induced necroptosis, CellTitre-Glo viability. The settings on record: Mus musculus, Fibroblast, MDF, 3 hours TSI cocktail, read-out: Inhibition of TSI-induced necroptosis (IC50 cell-based assay) in MDF. As for the experimental part:
Cellular Assay: Screening Compounds for Inhibition of TSI Induced Necroptosis in, 384 Well Plate Format.
• Cell Line ID: Immortalised Mouse Dermal Fibroblasts (MDFs). • Cell Concentration (cells/well): Final cell density is 2200 cells per well. • Cell growth medium: DMEM medium+7.4% Fetal Bovine Serum (FBS). Cells are cultured in Corning 150 cm^2 tissue culture flasks with vented caps at 37° C./10% CO2. • Incubation: Plates were incubated for 30 minutes following addition of compounds and then 3 hours incubation with death stimuli (TSI cocktail) at 37° C./10% CO2 in a humidified incubator. • Compound concentration: 36 μM starting concentration, 1:3 dilution, 10 point • DMSO final concentration (% v/v): 0.3%. Compounds in TSI Cocktail (T: TNF; S: Smac Mimetic; I: IDN-6556) and their Final Concentrations: • rhTNF (100 ng/ml) • Compound a (500 nM)—Smac Mimetic, Tetralogic and SYNthesis Med Chem • IDN-6556 (10 μM)—Selleckchem (S7775)
The cellular assay was carried out according to the following steps: • 1. Each well was prepared by sequential addition of: • a. 40 μL of cell suspension (5.5×10^4 cells/mL) was added to each well to provide a final cell concentration of 2,200 cells per well. • b. After 24 hours, DMSO (control; columns 1-2 and 23-24) or compound in DMSO—addition was performed using acoustic transfer of nL volumes of stock compound to give final test concentrations of 36, 12, 4, 1.3, 0.44, 0.148, 0.049, 0.016, 0.005 and 0.002 μM. All wells were backfilled with DMSO to a final total volume in the well of 100 nL. • c. Following compound/DMSO addition in step (b), Plates were incubated for 30 minutes at 37° C./10% CO2 in a humidified incubator and then 10 μL of 5×TSI cocktail (except to positive controls; columns 2 and 24) was added to each well. • 2. After 3 hours, plate was removed from the 37° C. incubator and equilibrated to room temperature for 15 minutes. • 3. 15 μL of room temperatured CellTitre-Glo2™ (Promega™) was added to each well. • 4. Shook plates for 2 minutes (˜600 rpm) and incubated at room temperature for 15 minutes to allow signal to stabilise. • 5. Read luminescence readout on a plate reader.
Percent viability was calculated for each compound according to equation (2):
[formula] • Wherein RawData is the readout of any cell containing a compound of the invention.
TA is the total activity provided by the luminescence readout from DMSO only wells (columns 2 and 24)=100% viability.
NSA is the non-specific activity provided by DMSO+TSI wells (columns 1 and 23)=0% viability • Curve fitting: 10-point titration curves are fitted with the 4-parameter logistic nonlinear regression model and the IC50 reported is the inflection point of the curve • Analysis: Data was loaded into Dotmatics™ and visualised using the Tibco@ • Spotfire™ software. 10 point titration curves were fitted with the 4 parameter logistic nonlinear regression model and the IC50 reported reflect the inflection point of the curve for curve fitting.
Assay involving the TSI cocktail (T: TNF; S: Smac mimetic; I: IDN-6556): TSI treatment ensures that cells specifically undergo necroptotic cell death. TNF activates the TNF receptor, Smac mimetic directs the signal away from proinflammatory signaling and toward the RIPK1/RIPK3-mediated cell death pathways, and IDN-6556 (Caspase inhibitor) ensures that the apoptotic response is blocked leaving only the programmed necrosis response. The compounds' activity (solution in DMSO) tested in this TSI-induced assay was evaluated by determining the number of viable cells in culture by measuring the amount of ATP present as measured by CelltiterGlo.

The target in the next test is human RIPK1 (Homo sapiens (Human), UniProt Q13546). The test can be described thus: KINOMEscan binding assay, human RIPK1. The conditions noted are these: Table 21. In outline:
as §1

The next test has as its target human RIPK3 (Homo sapiens (Human), UniProt Q9Y572). The test can be described thus: KINOMEscan binding assay, human RIPK3. The settings on record: Table 21. In outline:
as §1

[2] abbreviates: KINOMEscan, Table 21, read-out: Human MLKL (full-length) (KD).
Where [3] appears, read: hMLKL, Table 25, read-out: MLKL (KD).

human RIPK1, sequence (Q13546 whole entry): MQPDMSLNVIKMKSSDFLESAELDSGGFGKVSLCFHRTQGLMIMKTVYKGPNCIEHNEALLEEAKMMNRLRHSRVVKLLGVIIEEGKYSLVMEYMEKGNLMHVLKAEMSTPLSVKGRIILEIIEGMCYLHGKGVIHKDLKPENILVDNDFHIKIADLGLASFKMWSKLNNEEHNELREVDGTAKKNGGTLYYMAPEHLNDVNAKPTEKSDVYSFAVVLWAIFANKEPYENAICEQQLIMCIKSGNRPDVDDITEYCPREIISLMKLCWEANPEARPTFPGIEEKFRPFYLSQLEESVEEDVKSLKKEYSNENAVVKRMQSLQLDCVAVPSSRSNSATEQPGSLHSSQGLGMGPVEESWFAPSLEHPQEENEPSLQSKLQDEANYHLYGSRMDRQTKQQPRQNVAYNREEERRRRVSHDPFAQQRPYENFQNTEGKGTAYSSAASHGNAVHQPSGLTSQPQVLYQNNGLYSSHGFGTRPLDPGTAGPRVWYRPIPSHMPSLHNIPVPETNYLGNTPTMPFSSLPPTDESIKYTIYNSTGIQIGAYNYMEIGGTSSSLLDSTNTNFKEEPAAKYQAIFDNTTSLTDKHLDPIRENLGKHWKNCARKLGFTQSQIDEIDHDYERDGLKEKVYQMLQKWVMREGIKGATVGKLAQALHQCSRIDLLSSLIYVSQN
human MLKL (full length), sequence (Q8NB16 whole entry): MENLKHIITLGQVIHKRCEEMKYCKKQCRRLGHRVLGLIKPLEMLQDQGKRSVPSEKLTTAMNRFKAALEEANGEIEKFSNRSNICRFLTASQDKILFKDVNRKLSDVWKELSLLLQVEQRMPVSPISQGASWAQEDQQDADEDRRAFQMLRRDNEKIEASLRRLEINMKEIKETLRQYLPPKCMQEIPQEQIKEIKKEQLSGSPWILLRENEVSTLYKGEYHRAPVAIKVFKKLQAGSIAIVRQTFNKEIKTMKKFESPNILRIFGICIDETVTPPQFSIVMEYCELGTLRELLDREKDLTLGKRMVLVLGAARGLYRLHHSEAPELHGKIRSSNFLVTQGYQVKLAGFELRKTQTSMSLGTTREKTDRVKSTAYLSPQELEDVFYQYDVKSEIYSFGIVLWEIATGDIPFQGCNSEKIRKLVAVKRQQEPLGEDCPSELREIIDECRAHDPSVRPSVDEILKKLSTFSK
human RIPK3, sequence (Q9Y572 whole entry): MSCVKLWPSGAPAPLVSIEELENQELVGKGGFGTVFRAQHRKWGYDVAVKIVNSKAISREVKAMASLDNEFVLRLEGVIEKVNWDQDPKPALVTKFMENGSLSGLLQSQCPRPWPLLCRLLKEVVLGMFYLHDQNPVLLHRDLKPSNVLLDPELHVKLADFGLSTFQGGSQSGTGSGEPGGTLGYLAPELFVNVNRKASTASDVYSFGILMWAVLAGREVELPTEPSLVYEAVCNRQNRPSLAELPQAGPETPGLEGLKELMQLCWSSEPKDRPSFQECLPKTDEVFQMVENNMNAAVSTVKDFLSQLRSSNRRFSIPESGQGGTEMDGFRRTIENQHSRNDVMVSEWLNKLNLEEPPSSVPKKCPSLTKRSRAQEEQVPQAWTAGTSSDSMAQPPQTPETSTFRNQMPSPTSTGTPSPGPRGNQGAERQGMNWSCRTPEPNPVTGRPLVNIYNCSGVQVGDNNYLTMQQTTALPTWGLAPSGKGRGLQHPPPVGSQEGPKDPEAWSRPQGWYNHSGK

As to `C[C@H](Oc1cc(-c2nn(C)c3c(-c4cnn(C5CCC(C)(C)N(C)C5)c4)cnc(N)c23)ccc1NS(=O)(=O)C(F)F)c1ccc(F)cc1` (stereo partly shown) [Compound 104, N-(4-{4-amino-1-methyl-7-[1-(1,6,6-trimethylpiperidin-3-yl)-1H-pyrazol-4-yl]-1H-pyrazolo[4,3-c]pyridin-3-yl}-2-[(1 S)-1-(4-fluorophenyl)ethoxy]phenyl)-1,1-difluoromethanesulfonamide], the results for the Kd on human MLKL (full length) (setting [2]), at human RIPK1 and on human RIPK3 were less than 1 nM, greater than 10 µM and greater than 10 µM, respectively. The IC50 in test [1] (Table 24) was less than 1000 nM.
As for `CC(=O)N1CCC(n2cc(-c3cnc(N)c4c(-c5ccc(NS(=O)(=O)C(F)F)c(O[C@@H](C)c6ccc(F)cc6)c5)nn(C)c34)cn2)CC1` [Compound 109, (S)—N-(4-(7-(1-(1-acetylpiperidin-4-yl)-1H-pyrazol-4-yl)-4-amino-1-methyl-1H-pyrazolo[4,3-c]pyridin-3-yl)-2-(1-(4-fluorophenyl)ethoxy)phenyl)-1,1-difluoromethanesulfonamide], the Kd was less than 1 nM on human MLKL (full length) (setting [2]), greater than 10 µM on human RIPK1 and greater than 10 µM at human RIPK3. In test [1] (Table 24), the IC50 is less than 1000 nM.
On to `CC1C(n2cc(-c3cnc(N)c4c(-c5ccc(NS(=O)(=O)C(F)F)c(O[C@@H](C)c6ccc(F)cc6)c5)nn(C)c34)cn2)CN1C` (stereo partly drawn) [Compound 147, N-(4-(4-amino-7-(1-(1,2-dimethylazetidin-3-yl)-1H-pyrazol-4-yl)-1-methyl-1H-pyrazolo[4,3-c]pyridin-3-yl)-2-((S)-1-(4-fluorophenyl)ethoxy)phenyl)-1,1-difluoromethanesulfonamide], for which the IC50 in test [1] (Table 24) is less than 1000 nM. For the same compound, the equilibrium dissociation constant (Kd) at human RIPK1 and on human RIPK3 was greater than 10 µM throughout.
`C[C@H](Oc1cc(-c2nn(C)c3c(-c4cnn(C5CC6CCC(C5)N6CC(F)(F)F)c4)cnc(N)c23)ccc1NS(=O)(=O)C(F)F)c1ccc(F)cc1` (stereo partly drawn) [Compound 153, N-(4-(4-amino-1-methyl-7-(1-(8-(2,2,2-trifluoroethyl)-8-azabicyclo[3.2.1]octan-3-yl)-1H-pyrazol-4-yl)-1H-pyrazolo[4,3-c]pyridin-3-yl)-2-((S)-1-(4-fluorophenyl)ethoxy)phenyl)-1,1-difluoromethanesulfonamide]: in test [1] (Table 24), the IC50 is less than 1000 nM. The Kd at human RIPK1 and on human RIPK3 was greater than 10 µM each time.
For the compound `C[C@H](Oc1cc(-c2nn(C)c3c(-c4cnn(CCCCCCC(=O)Nc5cccc6c5CN(C5CCC(=O)NC5=O)C6=O)c4)cnc(N)c23)ccc1NS(=O)(=O)C(F)F)c1ccc(F)cc1` (stereo partly drawn) [Compound 1062, 7-(4-{4-amino-3-[4-(difluoromethanesulfonamido)-3-[(1S)-1-(4-fluorophenyl)ethoxy]phenyl]-1-methyl-1H-pyrazolo[4,3-c]pyridin-7-yl}-1H-pyrazol-1-yl)-N-[2-(2,6-dioxopiperidin-3-yl)-1-oxo-2,3-dihydro-1H-isoindol-4-yl]heptanamide], the Kd at human MLKL (full length) (setting [3]) was less than 10 nM. The IC50 in test [1] (Table 27) is 1000 to 10000 nM.
As for `C[C@H](Oc1cc(-c2nn(C)c3c(C#CC4CCN(C)CC4)cnc(N)c23)ccc1NS(=O)(=O)C(F)F)c1ccc(F)cc1` [Compound 80, (S)—N-(4-(4-amino-1-methyl-7-((1-methylpiperidin-4-yl)ethynyl)-1H-pyrazolo[4,3-c]pyridin-3-yl)-2-(1-(4-fluorophenyl)ethoxy)phenyl)-1,1-difluoromethanesulfonamide], the Kd is less than 1 nM on human MLKL (full length) (setting [2]), greater than 10 µM at human RIPK1 and greater than 10 µM at human RIPK3. Moreover, in test [1] (Table 24), the concentration for half-maximal inhibition (IC50) was less than 1000 nM.
In the case of `C[C@H](Oc1cc(-c2nn(C)c3c(-c4cnn(C5CCC(N(C)C)C5)c4)cnc(N)c23)ccc1NS(=O)(=O)C(F)F)c1ccc(F)cc1` (stereo partly drawn) [Compound 168, N-(4-(4-amino-7-(1-(3-(dimethylamino)cyclopentyl)-1H-pyrazol-4-yl)-1-methyl-1H-pyrazolo[4,3-c]pyridin-3-yl)-2-((S)-1-(4-fluorophenyl)ethoxy)phenyl)-1,1-difluoromethanesulfonamide], the Kd is less than 1 nM on human MLKL (full length) (setting [2]), greater than 10 µM at human RIPK1 and greater than 10 µM at human RIPK3. The IC50 in test [1] (Table 24) was less than 1000 nM.
As for `C[C@H](Oc1cc(-c2nn(C)c3c(-c4cnn(C5CCN(C(=O)CC6CN(c7cccc8c7C(=O)N(C7CCC(=O)NC7=O)C8=O)C6)CC5)c4)cnc(N)c23)ccc1NS(=O)(=O)C(F)F)c1ccc(F)cc1` (stereo partly drawn) [Compound 1112, N-[4-(4-amino-7-{1-[1-(2-{1-[2-(2,6-dioxopiperidin-3-yl)-1,3-dioxo-2,3-dihydro-1H-isoindol-4-yl]azetidin-3-yl}acetyl)piperidin-4-yl]-1H-pyrazol-4-yl}-1-methyl-1H-pyrazolo[4,3-c]pyridin-3-yl)-2-[(1S)-1-(4-fluorophenyl)ethoxy]phenyl]-1,1-difluoromethanesulfonamide], on human MLKL (full length) (setting [3]), the Kd is less than 10 nM. Further, in test [1] (Table 27), the IC50 fell in the range of 1000 to 10000 nM.
Regarding `C[C@H](Oc1cc(-c2nn(C)c3c(-c4cnn(C5CCN(C)C(C(F)(F)F)C5)c4)cnc(N)c23)ccc1NS(=O)(=O)C(F)F)c1ccc(F)cc1` (stereo partly drawn) [Compound 148, N-(4-(4-amino-1-methyl-7-(1-(1-methyl-2-(trifluoromethyl)piperidin-4-yl)-1H-pyrazol-4-yl)-1H-pyrazolo[4,3-c]pyridin-3-yl)-2-((S)-1-(4-fluorophenyl)eth-oxy)phenyl)-1,1-difluoromethane-sulfonamide], the IC50 in test [1] (Table 24) is less than 1000 nM. The Kd on human RIPK1 and at human RIPK3 was greater than 10 µM in each case.
As for `C[C@H](Oc1cc(-c2nn(C)c3c(-c4cnn(C5CCN(C(=O)c6cccc(C(=O)NC7CCC(=O)NC7=O)c6)CC5)c4)cnc(N)c23)ccc1NS(=O)(=O)C(F)F)c1ccc(F)cc1` (stereo partly drawn) [Compound 1084, 3-[4-(4-{4-amino-3-[4-(difluoromethanesulfonamido)-3-[(1S)-1-(4-fluorophenyl)ethoxy]phenyl]-1-methyl-1H-pyrazolo [4,3-c]pyridin-7-yl}-1H-pyrazol-1-yl)piperidine-1-carbonyl]-N-(2,6-dioxopiperidin-3-yl)benzamide], at human MLKL (full length) (setting [3]), the Kd was less than 10 nM. Besides, the IC50 in test [1] (Table 27) is 1000 to 10000 nM.

For orientation: Kd means a measure of binding affinity in units of concentration. What is called IC50 is the point on the concentration scale where inhibition reaches its midpoint.
